Test results: US4007165A (priority 1974, dated 1977)

Experiments:
[1] = Curing of unsaturated polyester-styrene resin
Description: An unsaturated polyester resin was made by reacting maleic anhydride (1.0 mole), phthalic anhydride (1.0 mole), and propylene glycol (2.2 moles) until an acid number of 45-50 was obtained. To this was added hydroquinone at a 0.013% concentration. Seven parts of this unsaturated polyester was diluted with 3 parts of monomeric styrene to obtain a homogeneous blend having a viscosity of 13.08 poise and a specific gravity of 1.14.
To 20 grams of this blend was added 0.128 gram of alpha-(tert.-butylazo)isobutyronitrile and the resultant composition placed in a constant temperature bath at 212° F. (100° C.). […] At 180° F. (82.2° C.), a peak exotherm of 381° F. (193.9° C.) was obtained in 13.3 minutes. The resultant cured materials were very hard.
The procedure of Example III was used at 212° F. (100° C.) and 240° F. (115.6° C.) where peak exotherms of 414° F. (212.2° C.) and 440° F. (226.7° C.) were obtained after 10.0 and 5.3 minutes respectively using 0.2 gram of the 1-tert.-butylazo-1-cyanocyclohexane. The resultant cured resins were very hard.
The curing procedure and resin are described in Example III.

[2] = for gas/nitrogen evolution or decomposition: room temperature or on melting; for temperature at which it begins to evolve nitrogen: onset
[3] = Thermal decomposition half-life; format: physicochemical; details: gas evolution technique, trichlorobenzene solvent
Description: It produces 179 cc. of gas per gram at 110° C. The following half-life data have been determined:
The following half-life data have been determined by gas evolution technique using trichlorobenzene as the solvent: […]

[4] = 240° F. (115.6° C.), 1.0 weight per cent
[5] = 180° F. (82.2° C.), 1.0 weight per cent
[6] = 180° F. (82.2° C.), loading not given
[7] = 212° F. (100° C.), loading not given
[8] = 265° F. (129.4° C.), 1.0 weight per cent
[9] = 212° F. (100° C.), 1.0 weight per cent

Which “Barcol Hardness” value ([1]; bath 82° C.) does the source give for `CC(C)CC(C)(N=NC(C)(C)C)NNC(C)(C)C` (stereo not shown) [LXIX, 2-t-Butylazo-2-t-butylhydrazo-4-methylpentane] here?
The value was 40.

What about the “Minutes to Peak Exotherm” value ([1]; bath 82° C.) of the same molecule?
Its value is 1.4 min.

And the “peak exotherm” value ([1]; bath 82° C.)?
Its value is 275 ° F.

What about the “gas/nitrogen evolution or decomposition” value [2] of the same molecule?
The value was “evolves nitrogen at room temperature”.

Which “gas/nitrogen evolution or decomposition” value [2] does the source give for `CC(C)CC(C)(N=NC(C)(C)C)OOC(C)(CC(C)C)N=NC(C)(C)C` (stereo not shown) [LVIII, Di[1-(t-butylazo)-1,3-dimethylbutyl] Peroxide] here?
The value was “began to gas rapidly upon reaching room temperature”.

Which peak exotherm [1, 4] does the source give for `CC(C)(C)N=NC(C)(C)C(N)=O` [Example XXV, 2-t-butylazo-2-carbamylpropane] here?
Its peak exotherm is 442 ° F.

What about the “time to peak exotherm” value [1, 4] of the same molecule?
The value was 5.7 min.

And the “temperature at which it evolves nitrogen” value [2]?
The value was “above 120 °C”.

Which “Barcol Hardness” value ([1]; bath 82° C.) does the source give for `COC(C)(N=NC(C)(C)C)c1ccccc1` (stereo not shown) [XXXIX, 1-t-butylazo-1-methoxy-1-phenylethane] here?
The value was 40.

And the “Minutes to Peak Exotherm” value ([1]; bath 82° C.)?
Its value is 6.6 min.

And the “peak exotherm” value ([1]; bath 82° C.)?
The value was 371 ° F.

For `CCCNC(C)(CC(C)C)N=NC(C)(C)C` (stereo not shown) [Example LX, 2-t-Butylazo-2-(propylamino)-4-methylpentane], which “gas/nitrogen evolution or decomposition” value [2] is on record?
The value was “slowly evolves gas at room temperature”.

What does the source list for `CC(C)CC(C#N)(CC(C)C)N=NC(C)(C)C` [Example VII, 4-tert.-butylazo-4-cyano-2,6-dimethylheptane]?
hardness of cured resin [1]: very hard; peak exotherm [1, 5]: 371 ° F.; time to peak exotherm [1, 5]: 2.8 min; temperature at which it begins to evolve nitrogen [2]: 70 °C

With `CC(C)CC(C)(N=NC(C)(C)C)OOC(C)(C)CCC(C)(C)OOC(C)(CC(C)C)N=NC(C)(C)C` (stereo not shown) [LXV, 2,2,5,8,8,11,11,14,17,17-decamethyl-5,14-diisobutyl-Δ^3,15-3,4,15,16-tetraaza-6,7,12,13-tetraoxaoctadecadiene] as the molecule, how does the “temperature at which it evolves nitrogen” value [2] read?
Its value is 30 °C.

What does the source list for `CC(C)(C)N=NC(C)(C#N)C(C)(C)C` (stereo not shown) [Example IX, 2-tert.-butylazo-2-cyano-3,3-dimethylbutane]?
hardness of cured resin [1]: very hard; peak exotherm [1, 6]: 388 ° F.; time to peak exotherm [1, 6]: 10.4 min; peak exotherm [1, 7]: 430 ° F.; time to peak exotherm [1, 7]: 4.9 min; temperature at which it begins to evolve nitrogen [2]: 95 °C

Which “hardness of cured resin” value [1] does the source give for `CC1CC(C)(C)CC(C#N)(N=NC(C)(C)C)C1` (stereo not shown) [Example VIII, 1-tert.-butylazo-1-cyano-3,3,5-trimethylcyclohexane] here?
Its value is “very hard”.

What about the peak exotherm [1, 5] of the same molecule?
Its peak exotherm is 384 ° F.

What about the “time to peak exotherm” value [1, 5] of the same molecule?
Its value is 9.4 min.

What about the “temperature at which it begins to evolve nitrogen” value [2] of the same molecule?
The value was 100 °C.

Which “gas/nitrogen evolution or decomposition” value [2] does the source give for `C=C(C)N=NC(C)(C)C` [XXII, 2(-tert.-butylazo)propene] here?
The value was “evolves nitrogen at room temperature”.

For `CC(C)CC(C)(N=NC(C)(C)C)SC#N` (stereo not shown) [LI, 2-t-Butylazo-2-thiocyanato-4-methylpentane], which “Barcol Hardness” value ([1]; bath 115° C.) is on record?
The value was 45.

What about the “Minutes to Peak Exotherm” value ([1]; bath 115° C.) of the same molecule?
Its value is 3.4 min.

And the “peak exotherm” value ([1]; bath 115° C.)?
Its value is 438 ° F.

For `CC(C)(C)N=NC(=O)c1ccccc1` [Example XX, Benzoyl tert.-butyldiimide], which “hardness of cured resin” value [1] is on record?
The value was “hard”.

What about the peak exotherm [1, 5] of the same molecule?
The peak exotherm was 233 ° F.

What about the “time to peak exotherm” value [1, 5] of the same molecule?
The value was 10.0 min.

What about the “temperature at which it evolves nitrogen” value [2] of the same molecule?
Its value is 25 °C.

For `CC(C)(C)N=NC(C)(C#N)C1CC1` (stereo not drawn) [Example XII, Alpha-tert-butylazo-alpha-cyclopropylpropionitrile], which “hardness of cured resin” value [1] is on record?
Its value is “very hard”.

What about the peak exotherm [1, 6] of the same molecule?
The peak exotherm was 403 ° F.

What about the “time to peak exotherm” value [1, 6] of the same molecule?
The value was 3.3 min.

What about the peak exotherm [1, 7] of the same molecule?
Its peak exotherm is 420 ° F.

And the “time to peak exotherm” value [1, 7]?
The value was 2.1 min.

What about the “temperature at which it begins to evolve nitrogen” value [2] of the same molecule?
The value was 75 °C.

Which “Barcol Hardness” value ([1]; bath 115° C.) does the source give for `CC(C)CC(C)(N=NC(C)(C)C)OC#N` (stereo not shown) [LIII, 2-t-Butylazo-2-cyanato-4-methylpentane] here?
The value was 45.

And the “Minutes to Peak Exotherm” value ([1]; bath 115° C.)?
Its value is 3.8 min.

What about the “peak exotherm” value ([1]; bath 115° C.) of the same molecule?
The value was 412 ° F.

For `CC(C)(C)N=NC1(C(N)=O)CCCCC1` [XXIV, 1-tert. butylazo-1-carbamylcyclohexane], which peak exotherm [1, 4] is on record?
Its peak exotherm is 444 ° F.

And the “time to peak exotherm” value [1, 4]?
The value was 6.8 min.

What about the “temperature at which it evolves nitrogen” value [2] of the same molecule?
The value was “above 120 °C”.

Which “hardness of cured resin” value [1] does the source give for `CNC(=O)N=NC(C)(C)C` [XIV, tert.-butylazo-N-methylformamide] here?
The value was “very hard”.

What about the peak exotherm [1, 8] of the same molecule?
Its peak exotherm is 428 ° F.

What about the “time to peak exotherm” value [1, 8] of the same molecule?
Its value is 17.1 min.

For `CC(C)(C)N=NC(N)=O` [Example XIII, tert.-butylazoformamide], which “hardness of cured resin” value [1] is on record?
Its value is “very hard”.

What about the peak exotherm [1, 9] of the same molecule?
Its peak exotherm is 407 ° F.

And the “time to peak exotherm” value [1, 9]?
The value was 7.1 min.

And the peak exotherm [1, 4]?
Its peak exotherm is 430 ° F.

What about the “time to peak exotherm” value [1, 4] of the same molecule?
The value was 5.9 min.

And the peak exotherm [1, 8]?
Its peak exotherm is 438 ° F.

What about the “time to peak exotherm” value [1, 8] of the same molecule?
Its value is 4.5 min.

And the “t 1/2” value ([3]; 110° C)?
The value was 5.73 h.

And the “t 1/2” value ([3]; 120° C)?
Its value is 3.00 h.

And the “t 1/2” value ([3]; 130° C)?
Its value is 0.87 h.

And the “t 1/2” value ([3]; 150° C)?
The value was 0.14 h.

What does the source list for `CC(C)(C#N)N=NC(C)(C)c1ccccc1` [Example XI, Alpha-(tert.-cumylazo)isobutyronitrile]?
hardness of cured resin [1]: very hard; peak exotherm [1, 5]: 378 ° F.; time to peak exotherm [1, 5]: 1.3 min; temperature at which it begins to evolve nitrogen [2]: 55 °C

With `COC(C)(CC(C)C)N=NC(C)(C)C` (stereo not shown) [XXXVI, 2-t-butylazo-2-methoxy-4-methylpentane] as the molecule, how does the “Barcol Hardness” value ([1]; bath 115° C.) read?
The value was 40.

What about the “Minutes to Peak Exotherm” value ([1]; bath 115° C.) of the same molecule?
The value was 7.2 min.

And the “peak exotherm” value ([1]; bath 115° C.)?
The value was 400 ° F.

For `CC(C)CC(C)(N=NC(C)(C)C)NNc1ccccc1` (stereo not shown) [LXVIII, 2-t-Butylazo-2-phenylhydrazo-4-methylpentane], which “gas/nitrogen evolution or decomposition” value [2] is on record?
The value was “decomposes rapidly at room temperature”.

For `CC(C)CC(C)(N=NC(C)(C)C)OC(C)(C)C` (stereo not shown) [LIV, 2-t-Butylazo-2-t-butoxy-4-methylpentane], which “Barcol Hardness” value ([1]; bath 115° C.) is on record?
The value was 20.

What about the “Minutes to Peak Exotherm” value ([1]; bath 115° C.) of the same molecule?
The value was 2.8 min.

And the “peak exotherm” value ([1]; bath 115° C.)?
Its value is 358 ° F.

Which “Barcol Hardness” value ([1]; bath 100° C.) does the source give for `CC(C)CC(C)(N=NC(C)(C)C)N=[N+]=[N-]` (stereo not shown) [XLII, 2-t-butylazo-2-azido-4-methylpentane] here?
The value was 40.

What about the “Minutes to Peak Exotherm” value ([1]; bath 100° C.) of the same molecule?
The value was 5.3 min.

What about the “peak exotherm” value ([1]; bath 100° C.) of the same molecule?
Its value is 418 ° F.

With `CC(C)OC(=O)N=NC(C)(C)c1ccccc1` [Example XVIII B, Isopropyl tert.-cumylazocarboxylate] as the molecule, how does the “temperature at which it evolves nitrogen” value [2] read?
Its value is 80 °C.
